This passage reports T/C results from PubChem BioAssay AID248 (DTP/NCI, 2004).

Several values for one entry are separate records, joined by “and”; a condition that tells them apart may be missing. Equal values may be shown once. Inconclusive results and toxic doses are left out.

The experiment relates to L1210 leukemia ip in BDF1 mice, survival T/C. The experiment in a line: NCI In Vivo Anticancer Drug Screen. Data for tumor model L1210 Leukemia (intraperitoneal) in B6D2F1 (BDF1) mice. The following applies: endpoint: mean survival time, higher = longer survival. The method, boiled down:
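Tumor was transplanted into mice, which were then dosed with test compound or vehicle alone. Survival was recorded for each group, and the treated figure was expressed relative to the control figure.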

The mark [1] stands for this setting: dose: 100.0 mg/kg/injection, schedule: Q04DX003 (ip), vehicle: Klucel (hydroxypropylcellulose) (HPC).
[2] abbreviates: dose: 200.0 mg/kg/injection, schedule: Q04DX003 (ip), vehicle: Klucel (hydroxypropylcellulose) (HPC).
Setting [3] is: dose: 400.0 mg/kg/injection, schedule: Q04DX003 (ip), vehicle: Klucel (hydroxypropylcellulose) (HPC).
Setting [4] is: dose: 100.0 mg/kg/injection, schedule: Q01DX009 (ip), vehicle: Klucel (hydroxypropylcellulose) (HPC).
The mark [5] stands for this setting: dose: 200.0 mg/kg/injection, schedule: Q01DX009 (ip), vehicle: Klucel (hydroxypropylcellulose) (HPC).
Where [6] appears, read: dose: 400.0 mg/kg/injection, schedule: Q01DX009 (ip), vehicle: Klucel (hydroxypropylcellulose) (HPC).
Where [7] appears, read: dose: 50.0 mg/kg/injection, schedule: Q01DX009 (ip), vehicle: Klucel (hydroxypropylcellulose) (HPC).
Setting [8] is: dose: 100.0 mg/kg/injection, schedule: Q04DX003 (ip), vehicle: saline with Tween-80.
[9] abbreviates: dose: 100.0 mg/kg/injection, schedule: Q04DX003 (ip), vehicle: saline.
[10] abbreviates: dose: 200.0 mg/kg/injection, schedule: Q04DX003 (ip), vehicle: saline with Tween-80.
[11] abbreviates: dose: 200.0 mg/kg/injection, schedule: Q04DX003 (ip), vehicle: saline.

For the molecule `OCCCOc1cccc(Cl)c1`, the T/C is, setting by setting: (dose: 75.0 mg/kg/injection, schedule: Q04DX002 (ip), vehicle: Klucel (hydroxypropylcellulose) (HPC)) 105 % of control; (dose: 150.0 mg/kg/injection, schedule: Q04DX002 (ip), vehicle: Klucel (hydroxypropylcellulose) (HPC)) 108 % of control; (dose: 300.0 mg/kg/injection, schedule: Q04DX002 (ip), vehicle: Klucel (hydroxypropylcellulose) (HPC)) 105 % of control.
Consider `COc1cccc2c1CC/C(=C\c1cccnc1)C2=O`, for which the T/C (dose: 100.0 mg/kg/injection, schedule: Q04DX003 (ip), vehicle: carboxymethylcellulose (CMC)) was 103 % of control; the T/C (dose: 200.0 mg/kg/injection, schedule: Q04DX003 (ip), vehicle: carboxymethylcellulose (CMC)) is 102 % of control; the T/C (dose: 400.0 mg/kg/injection, schedule: Q04DX003 (ip), vehicle: carboxymethylcellulose (CMC)) is 95 % of control.
On to `c1ccc(CC2(Cc3ccccc3)SCCS2)cc1`, for which the T/C reads like this: under setting [1], 102 % of control; under setting [2], 91 % of control; under setting [3], 89 % of control.
As for `COc1ccc2c(c1)CN(S(=O)(=O)c1ccc(C)cc1)CCC2O` (stereo unspecified), the T/C was 96 % of control under setting [4]; 96 % of control under setting [1]; 116 % of control under setting [5]; 114 % of control under setting [2]; 98 % of control under setting [6]; 96 % of control under setting [3].
As to `COC(=O)/C=C/c1c[nH]c2nccnc12`, the T/C runs as follows: (dose: 100.0 mg/kg/injection, schedule: Q01DX009 (ip), vehicle: water) 98 % of control; (dose: 100.0 mg/kg/injection, schedule: Q04DX003 (ip), vehicle: water) 101 % of control; (dose: 200.0 mg/kg/injection, schedule: Q01DX009 (ip), vehicle: water) 95 % of control; (dose: 200.0 mg/kg/injection, schedule: Q04DX003 (ip), vehicle: water) 98 % of control; (dose: 400.0 mg/kg/injection, schedule: Q01DX009 (ip), vehicle: water) 97 % of control; (dose: 400.0 mg/kg/injection, schedule: Q04DX003 (ip), vehicle: water) 102 % of control.
On to `CC1(C)CC(=O)CCS1`, for which the T/C is 102 % of control under setting [4]; 105 % of control under setting [1]; 96 % of control under setting [5]; 98 % of control under setting [2]; 104 % of control under setting [6]; 100 % of control under setting [3].
Consider `CCCCC(OC(C)=O)C(OC(C)=O)C(COC(C)=O)NC(C)=O` (stereo unspecified), for which the T/C runs as follows: (dose: 100.0 mg/kg/injection, schedule: Q04DX002 (ip), vehicle: other) 103 % of control; (dose: 200.0 mg/kg/injection, schedule: Q04DX002 (ip), vehicle: other) 97 % of control; (dose: 400.0 mg/kg/injection, schedule: Q04DX002 (ip), vehicle: other) 110 % of control.
On to `O=C(CCBr)N1CCCN(C(=O)CCBr)CC1`, for which the T/C (dose: 106.0 mg/kg/injection, schedule: Q01DX Z (ip), vehicle: carboxymethylcellulose (CMC)) was 114 % of control and the T/C (dose: 160.0 mg/kg/injection, schedule: Q01DX Z (ip), vehicle: carboxymethylcellulose (CMC)) is 119 % of control.
As to `COc1cc(NS(C)(=O)=O)ccc1Nc1c2ccccc2nc2c(C)cccc12`, the T/C is 100 % of control (dose: 0.62 mg/kg/injection, schedule: Q01DX009 (ip), vehicle: saline); 124 % of control (dose: 1.25 mg/kg/injection, schedule: Q01DX009 (ip), vehicle: Klucel (hydroxypropylcellulose) (HPC)); 111 % of control (dose: 1.25 mg/kg/injection, schedule: Q01DX009 (ip), vehicle: saline); 160 % of control (dose: 2.5 mg/kg/injection, schedule: Q01DX009 (ip), vehicle: saline); 116 % of control (dose: 2.5 mg/kg/injection, schedule: Q01DX009 (sc), vehicle: saline); 121 % of control (dose: 2.5 mg/kg/injection, schedule: Q04DX003 (ip), vehicle: saline). Also, the T/C reads like this: (dose: 5.0 mg/kg/injection, schedule: Q01DX009 (ip), vehicle: Klucel (hydroxypropylcellulose) (HPC)) 118 % of control; (dose: 5.0 mg/kg/injection, schedule: Q01DX009 (ip), vehicle: saline) 163 % of control; (dose: 10.0 mg/kg/injection, schedule: Q01DX009 (ip), vehicle: Klucel (hydroxypropylcellulose) (HPC)) 103 % of control; (dose: 10.0 mg/kg/injection, schedule: Q01DX009 (sc), vehicle: saline) 112 % of control; (dose: 10.0 mg/kg/injection, schedule: Q04DX003 (ip), vehicle: saline) 159 % of control and 164 % of control; (dose: 20.0 mg/kg/injection, schedule: Q04DX003 (ip), vehicle: saline) 213 % of control and 234 % of control.
Regarding `CCCCC#CC(=O)OCC`, the T/C is, setting by setting: (dose: 100.0 mg/kg/injection, schedule: Q04DX002 (ip), vehicle: saline) 97 % of control; (dose: 200.0 mg/kg/injection, schedule: Q04DX002 (ip), vehicle: saline) 97 % of control; (dose: 400.0 mg/kg/injection, schedule: Q04DX002 (ip), vehicle: saline) 112 % of control.
On to `CC(C)=CCN(CC=C(C)C)CCC(C#N)c1cccc2ccccc12` (stereo unspecified), for which the T/C is, setting by setting: under setting [7], 100 % of control; under setting [4], 88 % of control; under setting [1], 109 % of control; under setting [5], 88 % of control; under setting [2], 90 % of control; under setting [3], 93 % of control.
On to `BrC1(Br)C2CCCCC21` (stereo unspecified), for which the T/C is, setting by setting: (dose: 100.0 mg/kg/injection, schedule: Q04DX003 (ip), vehicle: acetone) 90 % of control; (dose: 200.0 mg/kg/injection, schedule: Q04DX003 (ip), vehicle: acetone) 98 % of control and 90 % of control.
For `O=C1CCC(N2C(=O)C3C4c5ccccc5C(c5ccccc54)C3C2=O)C(=O)N1` (stereo unspecified), the T/C is 97 % of control under setting [8], 97 % of control under setting [9], 93 % of control under setting [10] and 89 % of control under setting [11].
Regarding `Cc1ccc2no[n+]([O-])c2c1`, the T/C runs as follows: (dose: 20.0 mg/kg/injection, schedule: Q01DX009 (ip), vehicle: Klucel (hydroxypropylcellulose) (HPC)) 111 % of control; (dose: 40.0 mg/kg/injection, schedule: Q01DX009 (ip), vehicle: Klucel (hydroxypropylcellulose) (HPC)) 108 % of control.
Regarding `Nc1c(Br)cc(Br)c(C(=O)O)c1Br`, the T/C runs as follows: under setting [7], 103 % of control; under setting [4], 101 % of control; under setting [5], 95 % of control.
Regarding `CN(C)CCOC(=O)c1ccc(N)cc1`, the T/C is 96 % of control under setting [9] and 98 % of control under setting [11].
As for `C(=NCC(CCN1CCCCC1)(CCN1CCCCC1)c1cccc2ccccc12)C(CCN1CCCCC1)(CCN1CCCCC1)c1cccc2ccccc12`, the T/C is 119 % of control (dose: 5.0 mg/kg/injection, schedule: Q04DX003 (ip), vehicle: Klucel (hydroxypropylcellulose) (HPC)); 114 % of control (dose: 10.0 mg/kg/injection, schedule: Q04DX003 (ip), vehicle: Klucel (hydroxypropylcellulose) (HPC)); 110 % of control (dose: 20.0 mg/kg/injection, schedule: Q04DX003 (ip), vehicle: Klucel (hydroxypropylcellulose) (HPC)).
In the case of `O=C1Cc2c(Cl)cccc2C(=S)N1`, the T/C (dose: 100.0 mg/kg/injection, schedule: Q01DX009 (ip), vehicle: saline sonified) was 95 % of control; the T/C under setting [8] is 95 % of control; the T/C (dose: 200.0 mg/kg/injection, schedule: Q01DX009 (ip), vehicle: saline sonified) is 91 % of control; the T/C under setting [10] is 93 % of control; the T/C (dose: 400.0 mg/kg/injection, schedule: Q01DX009 (ip), vehicle: saline sonified) is 98 % of control; the T/C (dose: 400.0 mg/kg/injection, schedule: Q04DX003 (ip), vehicle: saline with Tween-80) is 92 % of control.
For `COC(=O)c1ccc(N(C)Cc2cnc3nc(N)nc(SCc4ccccc4)c3n2)cc1`, the T/C is 97 % of control (dose: 100.0 mg/kg/injection, schedule: Q01DX001 (ip), vehicle: saline with Tween-80); 94 % of control (dose: 200.0 mg/kg/injection, schedule: Q01DX001 (ip), vehicle: saline with Tween-80); 101 % of control (dose: 400.0 mg/kg/injection, schedule: Q01DX001 (ip), vehicle: saline with Tween-80).
As to `CCOC(Nc1ccc(Cl)c(Cl)c1)C(=O)c1ccccc1` (stereo unspecified), the T/C (dose: 100.0 mg/kg/injection, schedule: Q01DX001 (ip), vehicle: saline) was 105 % of control; the T/C (dose: 200.0 mg/kg/injection, schedule: Q01DX001 (ip), vehicle: saline) is 105 % of control; the T/C (dose: 400.0 mg/kg/injection, schedule: Q01DX001 (ip), vehicle: saline) was 96 % of control.
